We go through 1 compound from patent US5028733A, “Prostaglandins” (National Research Development Corporation, priority 1980, dated 1991).

For test [1], the system named is rabbit aorta. The test can be described thus: Rabbit aorta strip, antagonism of contraction by 11,9-(epoxymethano) PGH2 (affinity constant KB). Type of test: cell-based. To be noted: in words. How it is done: Spiral strips of thoracic aorta are suspended in Kreb's-Henseleit solution and aerated with 95% O2 /5% CO2 at 37° C. Tension changes are recorded with a Glass FTO3 force transducer. Initially, cumulative dose response curves to 11,9-(epoxymethano) PGH2 (2×10^-9, 1×10^-8, 5×10^-8 and 2.5×10^-7 M) are obtained. In a second experiment the individual compounds are added 30 minutes previous to the addition of the series of agonist doses. In the case of each compound, the affinity constant, KB, for the compound is calculated according to the Gaddum - Schild Equation (based on Law of Mass Action).
(§1) [B]=molar concentration of compound

Test [2] relates to platelet aggregation (collagen). The test can be described thus: In vivo inhibition of platelet aggregation in guinea pigs (collagen). Details: species or system male albino guinea pig. How it is done:
(§2) The technique employed in this test was basically that of Smith and Freuler, Bibl. anat., 1973, 12, 229-234, which utilises the Technicon Autocounter and provides a completely automated system for counting platelets and cells. Blood is continuously sampled from a suitable artery and to avoid the use of an anticoagulant, a double cannula is used which enables 3.8%, w/v aqueous trisodium citrate to be pumped to the tip of the cannula and the citrated blood then to be removed at 0.1 ml/minute and diluted in the manifold where the red cells are lysed with 1% w/v ammonium oxalate/0.002% w/v saponin solution. The platelets are then counted optically and the count continuously recorded on precalibrated chart paper.
(§3) In three experiments, each conducted on one male albino guinea pig ([…]) anaesthetised with a mixture of allyl barbituric acid and urethane, the guinea pig was given intravenously a dose of 50 μg/kg of collagen, followed 15 minutes later by 0.35 μg/kg of 11,9-(epoxymethane) PGH2 to give two reliable platelet aggregation responses for each material. After a further period of 10 minutes, the guinea pig was treated intravenously with a dose of 1 mg/kg of 5-endo-(6'-carboxyhex-2'Z-enyl)-6-exo{1'-[N-(phenylthiocarbamoyl)hydrazono]-ethyl}-bicyclo [2,2,1] heptane prepared as described in Example 2. Commencing 5 minutes after the administration of the bicyclo [2,2,1] heptane, the alternate treatments at 15 minute intervals with collagen and 11,9-(epoxymethano) PGH2 were repeated, the second treatment with the latter compound being followed after 15 minutes by a final treatment with collagen. (In the first experiment, only, the last administration of each compound was omitted).

Test [3] relates to bronchoconstriction (collagen). The test can be described thus: Modified Konzett-Rossler test, inhibition of bronchoconstriction by collagen. Type of test: in vivo, guinea pig. To be noted: 5 min after compound; 1 mg/kg i.v.; insufflation pressure. The protocol: as §3
(§4) The same three experiments on guinea pigs described under 1(b) are used to give a measure in a modified Konzett-Rossler test of the inhibition produced by 5-endo-(6'-carboxyhex-2'Z-enyl)-6-exo{1'[N-(phenylthiocarbamoyl)-hydrazono]ethyl}-bicyclo [2,2,1] heptane, prepared as described in Example 2, of the bronchoconstriction resulting from administration of the collagen and the PGH2 derivative. […]

Test [4] deals with rabbit aorta. The test is described as follows: Block of the contractile action of noradrenaline in the rabbit aorta strip test. Type of test: cell-based. Conditions: in words.
For test [5], the system named is bronchoconstriction (PGH2 derivative). The test is described as follows: Modified Konzett-Rossler test, inhibition of bronchoconstriction by 11,9-(epoxymethano) PGH2. Conditions: 5 min after compound; 1 mg/kg i.v.; insufflation pressure. In kind it is in vivo, guinea pig. How it is done:
as §3, §4

Test [6] has as its system platelet aggregation (11,9-(epoxymethano) PGH2). The test can be described thus: In vivo inhibition of platelet aggregation in guinea pigs (11,9-(epoxymethano) PGH2). Set-up: species or system male albino guinea pig. The protocol: as §2, with “paper. In three experiments, each conducted on one male albino guinea pig ([…]) anaesthetised with a mixture of allyl barbituric acid and urethane, the guinea pig was given intravenously a dose of 50 μg/kg of collagen, followed 15 minutes later by 0.35 μg/kg of 11,9-(epoxymethane) PGH2 to give two reliable platelet aggregation responses for each material. […] (In the first experiment, only, the last administration of each compound was omitted).” for “paper.”

The next test deals with T1, human platelets (Homo sapiens, UniProt P21731).
T1 construct: Platelet-rich plasma is obtained from fresh, citrated human blood; endogenous in cells; host or cells: human platelets in platelet-rich plasma
T1 sequence (P21731 1-343): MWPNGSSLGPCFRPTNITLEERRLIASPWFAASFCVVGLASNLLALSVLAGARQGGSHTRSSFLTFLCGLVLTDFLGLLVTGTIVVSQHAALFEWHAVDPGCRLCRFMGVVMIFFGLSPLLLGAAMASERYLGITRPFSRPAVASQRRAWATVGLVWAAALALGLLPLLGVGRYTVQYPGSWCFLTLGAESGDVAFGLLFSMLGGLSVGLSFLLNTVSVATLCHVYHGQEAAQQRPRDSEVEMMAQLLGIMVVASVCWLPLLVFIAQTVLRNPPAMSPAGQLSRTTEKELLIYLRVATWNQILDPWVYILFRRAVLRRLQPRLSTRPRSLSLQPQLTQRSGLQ
The test can be described thus: Human platelet system, antagonism of aggregation by 11,9-(epoxymethano) PGH2 (affinity constant KB). In kind it is cell-based. Conditions: in words. How it is done:
Platelet-rich plasma is obtained from fresh, citrated human blood. Addition of the 11,9-(epoxymethano) PGH2 (1×10^-7 to 5×10^-7 M) causes immediate aggregation recorded as an increase in light transmission (600 nm). In a second experiment the individual compounds are added five minutes previous to the addition of the PGH2 analogue. The dose of the PGH2 analogue added is then increased to a level which gives a similar response to that obtained in the absence of antagonist. The affinity constant, KB, for the compound is calculated according to the Gaddum - Schild Equation (based on Law of Mass Action).
as §1

A further test has as its system platelet. The test is described as follows: Block of the aggregatory action of arachidonic acid on platelets. In kind it is cell-based. Conditions: in words.
Test [7] relates to platelet aggregation (collagen). The test is described as follows: In vivo inhibition of platelet aggregation in rats (collagen). Details: species or system male Sprague-Dawley rats. Conditions: for Percentage Fall in platelet count on administering collagen, After, mean: mean of 6 rats, compound 1 mg/kg i.v. The protocol:
as §2
Each of a group of six male Sprague-Dawley rats anaesthetised with pentabarbitone was injected intravenously with 40 μg/kg of collagen followed, 15 minutes later, by 80 μg/kg of collagen, which gives a dose-dependent and reproducible fall in platelet count. Ten minutes after the second injection of collagen, the rats were treated intravenously with a dose of 1 mg/kg of 5-endo-(6'-carboxyhex-2'Z-enyl)-6-exo-{1'-[N-(phenylthiocarbamoyl)-hydrazono]ethyl}-bicyclo [2,2,1] heptane prepared as described in Example 2. At 5 and 20 minutes after the administration of this compound a further 40 μg/kg and 80 μg/kg of collagen, respectively, were administered. The levels of platelet aggregation resulting from the administration of the collagen before and after the administration of the bicyclo [2,2,1] heptane were recorded continuously as indicated above.

Setting [8] is: collagen 50 μg/kg, average of experiments.
The mark [9] stands for this setting: PGH2 deriv. 0.35 μg/kg, average of experiments.

Structures are written as SMILES. “And” between values parts separate entries of the source, which are not always exact repeats. Equal entries are not always repeated.

For the compound `CC(=NNC(=S)Nc1ccccc1)[C@H]1[C@@H]2CC[C@@H](C2)[C@@H]1C/C=C\CCCC(=O)O` (relative stereo) [Example 2, 5-endo(6'-Carboxyhex-2'Z-enyl)-6-exo-{1'-[N-(phenylthiocarbamoyl)-hydrazono]-ethyl}-bicyclo [2,2,1] heptane], the “antagonist in the rabbit aorta strip test” value in the test on rabbit aorta [1] is reported as “pure antagonists in the rabbit aorta strip test”. Moreover, in [2] (collagen 50 μg/kg, 5 min after 1 mg/kg i.v. compound, single animal), the “Percentage Inhibition of platelet aggregation, 5 min” value is 73.6 Percentage and 64.5 Percentage and 68.3 Percentage. Also, the “Percentage Inhibition of platelet aggregation, 35 min” value in test [2] (collagen 50 μg/kg, 35 min after 1 mg/kg i.v. compound, single animal) is 67.3 Percentage and 64.4 Percentage and 56.1 Percentage. Besides, in test [2] (collagen 50 μg/kg, 65 min after 1 mg/kg i.v. compound, single animal), the “Percentage Inhibition of platelet aggregation, 65 min” value is 56.1 Percentage and 51.5 Percentage. Moreover, in test [2] (setting [8]), the “Percentage Inhibition of platelet aggregation, 5 min, Average” value stood at 68.8 Percentage; the “Percentage Inhibition of platelet aggregation, 35 min, Average” value came to 62.6 Percentage; the “Percentage Inhibition of platelet aggregation, 65 min, Average” value is listed as 53.8 Percentage. In addition, the “platelet aggregation produced by collagen, in words” value in [2] (guinea pig, 1 mg/kg i.v.) was “caused an inhibition of the platelet aggregation”. In addition, the “inhibition of the bronchoconstricting effect of collagen” value in test [3] is reported as “complete inhibition”. Also, the “contractile action of noradrenaline (α-adrenoceptors)” value with rabbit aorta [4] is recorded as “do not block the contractile action of noradrenaline”. In test [5], the “inhibition of the bronchoconstricting effect of the PGH2 derivative” value was “complete inhibition”. Moreover, the “Percentage Inhibition of platelet aggregation, 20 min” value in [6] (PGH2 deriv. 0.35 μg/kg, 20 min after 1 mg/kg i.v. compound, single animal) was 75.7 Percentage and 85.2 Percentage and 83.7 Percentage. For the same compound, the “Percentage Inhibition of platelet aggregation, 50 min” value in test [6] (PGH2 deriv. 0.35 μg/kg, 50 min after 1 mg/kg i.v. compound, single animal) was 65.5 Percentage and 64.6 Percentage. Besides, in test [6] (setting [9]), the “Percentage Inhibition of platelet aggregation, 20 min, Average” value is listed as 81.5 Percentage and the “Percentage Inhibition of platelet aggregation, 50 min, Average” value is 65.1 Percentage. Further, the “platelet aggregation produced by 11,9-(epoxymethano) PGH2, in words” value in [6] (guinea pig, 1 mg/kg i.v.) is “caused an inhibition of the platelet aggregation”. In addition, the “antagonist in the platelet test” value at human platelets is “antagonists in the platelet test”. Moreover, in the test on platelet, the “aggregatory action of arachidonic acid” value was “block the aggregatory action of arachidonic acid”. Also, in [7] (40 μg/kg collagen, before vs after compound 1 mg/kg i.v.), the “average response to collagen” value is recorded as “significantly reduced”. In addition, the “P, one tailed paired t-test, reduction of average response” value in [7] (40 μg/kg collagen, t=2.25 (5Df)) was under 0.05. For the same compound, the “Percentage Fall in platelet count on administering collagen, After, individual rat” value in test [7] (collagen 40 μg/kg i.v., 5 min after 1 mg/kg i.v. compound) was 14.0 Percentage and 13.3 Percentage and 14.6 Percentage and 25.0 Percentage and 18.5 Percentage and 19.4 Percentage. The “Percentage Fall in platelet count on administering collagen, After, mean” value in test [7] (collagen 40 μg/kg) came out at 17.47 Percentage. Further, the “Percentage Fall in platelet count on administering collagen, After, individual rat” value in test [7] (collagen 80 μg/kg i.v., 20 min after 1 mg/kg i.v. compound) was 18.3 Percentage and 27.1 Percentage and 28.4 Percentage and 34.4 Percentage and 34.5 Percentage and 28.2 Percentage. In addition, the “Percentage Fall in platelet count on administering collagen, After, mean” value in test [7] (collagen 80 μg/kg) worked out at 28.5 Percentage.
